Source: ChEMBL document CHEMBL5674871, “EZH2 is required for mouse oocyte meiotic maturation by interacting with and stabilizing spindle assembly checkpoint protein BubRI” (Nucleic Acids Res, 2016)
Activity calls are given as the source filed them. No cut-off for these calls is given here.

Assays:
[1] = tested on: Oocyte; assay: Effect on ICR mouse oocyte meiotic maturation assessed as abnormal polar bodies extrusions at 1 uM after 14 hrs by immunofluorescence analysis; format: functional, cell-based
[2] = biological target: Histone-lysine N-methyltransferase EZH2 (Mus musculus) (UniProt Q61188); assay: Inhibition of EZH2 in ICR mouse oocyte assessed as EED protein level at 1 uM by Western blot analysis; format: cell-based
[3] = biological target: Histone-lysine N-methyltransferase EZH2 (Mus musculus) (UniProt Q61188); assay: Inhibition of EZH2 in ICR mouse oocyte assessed as SUZ12 protein level at 1 uM by Western blot analysis; format: cell-based
[4] = biological target: Histone-lysine N-methyltransferase EZH2 (Mus musculus) (UniProt Q61188); assay: Inhibition of EZH2 in ICR mouse oocyte assessed as effect on H3 level at 1 uM by Immunofluorescence analysis; format: cell-based
[5] = tested on: Oocyte; assay: Effect on EZH2 protein expression in ICR mouse oocyte at 1 uM for 14 hrs by Western blot analysis; format: functional, cell-based
[6] = tested on: Oocyte; assay: Effect on ICR mouse oocyte meiotic maturation assessed as PB1 extrusions at 1 uM by immunofluorescence analysis; format: functional, cell-based
[7] = biological target: Histone-lysine N-methyltransferase EZH2 (Mus musculus) (UniProt Q61188); assay: Inhibition of EZH2 methyltransferase activity in ICR mouse oocyte assessed as effect on H3K9me2 level at 1 uM by Immunofluorescence analysis; format: cell-based
[8] = biological target: Histone-lysine N-methyltransferase EZH2 (Mus musculus) (UniProt Q61188); assay: Inhibition of EZH2 methyltransferase activity in ICR mouse oocyte assessed as decrease in H3K27 trimethylation level at 1 uM by Immunofluorescence analysis; format: cell-based
[9] = biological target: Histone-lysine N-methyltransferase EZH2 (Mus musculus) (UniProt Q61188); assay: Inhibition of EZH2 in ICR mouse oocyte assessed as decrease in H3K27 trimethylation level at 5 uM by Immunofluorescence analysis; format: cell-based
[10] = biological target: Histone-lysine N-methyltransferase EZH2 (Mus musculus) (UniProt Q61188); assay: Inhibition of EZH2 in ICR mouse oocyte assessed as SUZ12 protein level at 5 uM by Western blot analysis; format: cell-based
[11] = biological target: Histone-lysine N-methyltransferase EZH2 (Mus musculus) (UniProt Q61188); assay: Inhibition of EZH2 methyltransferase activity in ICR mouse oocyte assessed as decrease in H3K9me2 level at 5 uM by Immunofluorescence analysis; format: cell-based
[12] = tested on: Oocyte; assay: Effect on ICR mouse oocyte meiotic maturation assessed as PB1 extrusions at 5 uM by immunofluorescence analysis; format: functional, cell-based
[13] = tested on: Oocyte; assay: Effect on EZH2 protein expression in ICR mouse oocyte at 5 uM for 14 hrs by Western blot analysis; format: functional, cell-based
[14] = biological target: Histone-lysine N-methyltransferase EZH2 (Mus musculus) (UniProt Q61188); assay: Inhibition of EZH2 in ICR mouse oocyte assessed as EED protein level at 5 uM by Western blot analysis; format: cell-based
[15] = biological target: Histone-lysine N-methyltransferase EZH2 (Mus musculus) (UniProt Q61188); assay: Inhibition of EZH2 in ICR mouse oocyte assessed as effect on H3 level at 5 uM by Immunofluorescence analysis; format: cell-based

Histone-lysine N-methyltransferase EZH2 (Mus musculus), sequence (Q61188 whole entry): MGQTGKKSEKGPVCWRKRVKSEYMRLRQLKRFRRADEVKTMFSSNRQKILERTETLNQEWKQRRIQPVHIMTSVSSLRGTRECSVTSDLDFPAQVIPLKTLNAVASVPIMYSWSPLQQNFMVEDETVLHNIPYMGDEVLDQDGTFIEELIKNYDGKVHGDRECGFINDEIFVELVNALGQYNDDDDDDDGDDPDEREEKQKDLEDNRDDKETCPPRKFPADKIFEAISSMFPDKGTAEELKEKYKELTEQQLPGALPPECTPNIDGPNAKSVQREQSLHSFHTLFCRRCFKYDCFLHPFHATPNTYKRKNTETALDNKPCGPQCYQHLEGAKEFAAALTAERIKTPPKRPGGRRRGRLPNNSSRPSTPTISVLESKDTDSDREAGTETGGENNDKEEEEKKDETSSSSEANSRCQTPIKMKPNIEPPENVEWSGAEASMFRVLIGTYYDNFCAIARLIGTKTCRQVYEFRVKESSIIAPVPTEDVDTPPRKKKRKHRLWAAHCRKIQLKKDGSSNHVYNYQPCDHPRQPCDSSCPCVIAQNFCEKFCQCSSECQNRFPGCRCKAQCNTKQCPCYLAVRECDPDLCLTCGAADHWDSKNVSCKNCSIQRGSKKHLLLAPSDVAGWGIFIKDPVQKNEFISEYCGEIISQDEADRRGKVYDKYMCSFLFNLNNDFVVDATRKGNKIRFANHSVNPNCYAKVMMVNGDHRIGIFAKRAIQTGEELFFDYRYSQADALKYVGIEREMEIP

inhibition [2] | inhibition [3] | inhibition [4] | inhibition [7] | inhibition [8] | inhibition [9] | inhibition [10] | inhibition [11] | inhibition [14] | inhibition [15] | SMILES | Activity [1] | Activity [5] | Activity [6] | Activity [12] | Activity [13]
inactive | inactive | inactive | inactive | Active | – | – | – | – | – | CCCc1cc(C)[nH]c(=O)c1CNC(=O)c1cc(-c2ccnc(N3CCN(C)CC3)c2)cc2c1cnn2C(C)C | Active | inactive | inactive | – | –
– | – | – | – | – | Active | inactive | Active | inactive | inactive | Nc1nccc2c1ncn2[C@@H]1C=C(CO)[C@@H](O)[C@H]1O | – | – | – | inactive | inactive
